Assays:
[1] = Clearance of sorafenib in cultured MHCC97-H cells; assay type: in vitro ADME; conditions: human, Half-life (t1/2 value) of Sor, 1 µmol/L sorafenib
[2] = test system: MHCC97-H cells; test: Subcutaneous HCC tumor growth model; assay type: in vivo, nude mice; conditions: sorafenib 2 mg/kg oral; Figure 3
[3] = test system: MHCC97-H cells; test: Intrahepatic HCC tumor growth model; assay type: in vivo, nude mice; conditions: sorafenib 2 mg/kg oral; Figure 4
[4] = test system: MDR-1; test: qPCR expression of PXR downstream gene MDR-1 in MHCC97-H cells; conditions: human

Row | half-life at 1 µmol/L ([1]; miR-140-3p) [h] | half-life at 1 µmol/L ([1]; miR-140-3p + inhibitor) [h] | EC50 at 24 h [4] [nM] | Structure (SMILES) | Effect on subcutaneous growth of HCC cells in nude mice [2] | Effect on intrahepatic growth of MHCC97-H cells in livers of nude mice [3]
1 | 21.6 ± 5.3 | 14.7 ± 5.87 | – | CNC(=O)c1cc(Oc2ccc(NC(=O)Nc3ccc(Cl)c(C(F)(F)F)c3)cc2)ccn1 [Sor, sorafenib] | significantly inhibit the subcutaneous growth of HCC cells | significantly inhibit the intrahepatic growth of MHCC97-H cells
2 | – | – | 1810 ± 290 | CO[C@H]1/C=C/O[C@@]2(C)Oc3c(C)c(O)c4c(O)c(c(/C=N/N5CCN(C)CC5)c(O)c4c3C2=O)NC(=O)/C(C)=C\C=C\[C@H](C)[C@H](O)[C@@H](C)[C@@H](O)[C@@H](C)[C@H](OC(C)=O)[C@@H]1C [rifampicin, Rifampicin] | – | –
